Results as given in patent US9376376B2, “Substitute diphenylamine compounds use thereof as antitumor agents” (SINOCHEM CORPORATION, priority 2012, dated 2016).

Columns and labels:
[1] = tested on: non-small cell lung cancer A549 cells; test: In vitro cell inhibition assay, CCK-8 method, A549; assay type: cell-based, human; conditions: 48 h incubation
Method: (§1) After the cell culture flasks gently shaking, culture fluid was discarded in clean bench. […] Cells were collected and transferred to centrifuge tube. For the non-adherent cells HL-60, CCRF-CEM and MOLT-4, cell flasks were picked up from incubator and then transferred to the centrifuge tubes directly. After cells were collected using centrifuge at 1000 rpm/min for 5 min, the fluid was discarded. Then cells were washed for one time by PBS, discard fluid. Then add some medium, count cells under inverted microscope using blood cell counting plate, according the counting number to making the density of adherent cell was 1×10^5 cells/mL, the non-adherent cell was 2×10^5 cells/mL (the volumes of HL-60, CCRF-CEM, MOLT-4 are smaller than non-adherent cells, these cells added to each well was much more higher). Add 50 μL aliquots to each well of 96-well plates (the density of adherent cells was 5000 cells/well, non-adherent cells was 10000 cells/well). Blank control, Negative control, blank control with compounds and positive control wells were grouped, and three replicate wells were used for each data point in the experiments. Then the cells were cultured in 5% incubator for overnight at 37° C., Then the different concentration compounds were added to each well. After incubation for 48 h, according to the manufacturer's instructions, CCK-8 reagent (10 μl) was added and incubation was continued for a further 2-4 h. The absorbance (A) of each well was read at 450 nm using a plate reader.

leukemia HL-60 cells = test: In vitro cell inhibition assay, CCK-8 method, HL-60; assay type: cell-based, human; conditions: HL-60 cells, CCK-8 method
Method: as §1

colon cancer COLO-205 = test: In vitro cell inhibition assay, CCK-8 method, COLO-205; conditions: Homo sapiens, COLO 205, read-out: The half maximal inhibitory concentration (IC50)

| SMILES | Proliferation inhibitory effect of the compounds on A549 cells (% of Control) ([1]; CCK-8, 0.01 μM) | Proliferation inhibitory effect of the compounds on A549 cells (% of Control) ([1]; CCK-8, 0.1 μM) | Proliferation inhibitory effect of the compounds on A549 cells (% of Control) ([1]; CCK-8, 1 μM) | Proliferation inhibitory effect of the compounds on A549 cells (% of Control) ([1]; CCK-8, 10 μM) | Proliferation inhibitory effect of the compounds on A549 cells (% of Control) ([1]; CCK-8, 100 μM) | Proliferation inhibitory effect of the compounds on HL-60 cells (% of Control) (leukemia HL-60 cells; concentration 0.01 μM) | Proliferation inhibitory effect of the compounds on HL-60 cells (% of Control) (leukemia HL-60 cells; concentration 0.1 μM) | Proliferation inhibitory effect of the compounds on HL-60 cells (% of Control) (leukemia HL-60 cells; concentration 1 μM) | Proliferation inhibitory effect of the compounds on HL-60 cells (% of Control) (leukemia HL-60 cells; concentration 10 μM) | Proliferation inhibitory effect of the compounds on HL-60 cells (% of Control) (leukemia HL-60 cells; concentration 100 μM) | also measured |
| --- | --- | --- | --- | --- | --- | --- | --- | --- | --- | --- | --- |
| N#Cc1c(Cl)c(Cl)c(Nc2c(Br)cc(OC(F)(F)F)cc2Br)c(C#N)c1Cl [Compound 6-111] | 23.15 % of Control | 29.42 % of Control | 53.14 % of Control | 80.03 % of Control | 99.83 % of Control | 13.70 % of Control | 41.52 % of Control | 79.31 % of Control | 95.16 % of Control | 99.28 % of Control | – |
| N#Cc1c(Cl)c(Cl)c(Nc2c(Cl)cc(Br)cc2Cl)c(C#N)c1Cl [Compound 6-201] | 14.31 % of Control | 19.63 % of Control | 26.90 % of Control | 60.23 % of Control | 83.86 % of Control | 40.59 % of Control | 48.61 % of Control | 75.70 % of Control | 86.76 % of Control | 98.14 % of Control | – |
| N#Cc1c(Cl)c(Cl)c(Nc2c(Cl)cc(C(F)(F)F)cc2Cl)c(C#N)c1Cl [Compound 6-95] | 39.65 % of Control | 56.27 % of Control | 78.63 % of Control | 97.88 % of Control | 98.69 % of Control | 0.00 % of Control | 43.28 % of Control | 94.76 % of Control | 94.99 % of Control | 96.40 % of Control | – |
| N#Cc1c(Cl)c(Cl)c(Nc2c(Br)cc(Br)cc2Br)c(C#N)c1Cl [Compound 6-112] | – | – | – | – | – | – | – | – | – | – | inhibition at 0.01 µM ([1]; Homo sapiens, A549, CCK-8, 0.01 μM, read-out: Proliferation inhibitory effect of the compounds on A549 cells (% of Control)): 46.5%; inhibition at 0.1 µM ([1]; Homo sapiens, A549, CCK-8, 0.1 μM, read-out: Proliferation inhibitory effect of the compounds on A549 cells (% of Control)): 47.2%; inhibition at 1 µM ([1]; Homo sapiens, A549, CCK-8, 1 μM, read-out: Proliferation inhibitory effect of the compounds on A549 cells (% of Control)): 76.9%; inhibition at 10 µM ([1]; Homo sapiens, A549, CCK-8, 10 μM, read-out: Proliferation inhibitory effect of the compounds on A549 cells (% of Control)): 89.3%; inhibition at 100 µM ([1]; Homo sapiens, A549, CCK-8, 100 μM, read-out: Proliferation inhibitory effect of the compounds on A549 cells (% of Control)): 99.3%; inhibition at 0.01 µM (leukemia HL-60 cells; Homo sapiens, concentration 0.01 μM, read-out: Proliferation inhibitory effect of the compounds on HL-60 cells (% of Control)): 48.3%; inhibition at 0.1 µM (leukemia HL-60 cells; Homo sapiens, concentration 0.1 μM, read-out: Proliferation inhibitory effect of the compounds on HL-60 cells (% of Control)): 59.5%; inhibition at 1 µM (leukemia HL-60 cells; Homo sapiens, concentration 1 μM, read-out: Proliferation inhibitory effect of the compounds on HL-60 cells (% of Control)): 91.5%; inhibition at 10 µM (leukemia HL-60 cells; Homo sapiens, concentration 10 μM, read-out: Proliferation inhibitory effect of the compounds on HL-60 cells (% of Control)): 97.6%; inhibition at 100 µM (leukemia HL-60 cells; Homo sapiens, concentration 100 μM, read-out: Proliferation inhibitory effect of the compounds on HL-60 cells (% of Control)): 96.5% |
| N#Cc1c(Cl)c(Cl)c(Nc2ccc(Br)cc2Cl)c(C#N)c1Cl [Compound 6-45] | – | – | – | – | – | 0.00 % of Control | 27.78 % of Control | 39.89 % of Control | 52.09 % of Control | 80.30 % of Control | – |
| N#Cc1c(Cl)c(Cl)c(Nc2ccc(C(F)(F)F)cc2)c(C#N)c1Cl [Compound 6-24] | 22.06 % of Control | 24.27 % of Control | 31.44 % of Control | 60.31 % of Control | 87.36 % of Control | 0.00 % of Control | 17.55 % of Control | 48.39 % of Control | 56.72 % of Control | 95.11 % of Control | – |
| N#Cc1c(Cl)c(Cl)c(Nc2ccc(Cl)c(Cl)c2)c(C#N)c1Cl [Compound 6-43] | – | – | – | – | – | 23.65 % of Control | 31.60 % of Control | 38.45 % of Control | 73.80 % of Control | 78.53 % of Control | – |
| COc1cc2ncnc(Nc3ccc(F)c(Cl)c3)c2cc1OCCCN1CCOCC1 [Gefitinib] | – | – | – | – | – | – | – | – | – | – | IC50 (colon cancer COLO-205): 6.97 µM |
| N#Cc1c(Cl)c(Cl)c(Nc2ccc(C(F)(F)F)cc2Cl)c(C#N)c1Cl [Compound 6-47] | 42.56 % of Control | 49.86 % of Control | 53.58 % of Control | 55.57 % of Control | 99.91 % of Control | 7.02 % of Control | 34.70 % of Control | 41.47 % of Control | 83.33 % of Control | 98.51 % of Control | – |
| COC(=O)c1ccc(Nc2c(Cl)c(Cl)c(C#N)c(Cl)c2C#N)cc1 [Compound 6-25] | 15.66 % of Control | 18.59 % of Control | 17.11 % of Control | 55.87 % of Control | 81.32 % of Control | 11.52 % of Control | 42.54 % of Control | 84.06 % of Control | 92.02 % of Control | 84.30 % of Control | – |
| COC(=O)c1cc(Cl)c(Nc2c(Cl)c(Cl)c(C#N)c(Cl)c2C#N)c(Cl)c1 [Compound 6-100] | 43.98 % of Control | 50.53 % of Control | 52.15 % of Control | 57.45 % of Control | 89.94 % of Control | 14.24 % of Control | 26.90 % of Control | 39.47 % of Control | 49.85 % of Control | 97.42 % of Control | – |
